# Test results taken from patent US20260258050A1, “IMMUNOMODULATOR” (HITGEN INC., priority 2023, published 2026).
# Assays:
# [1] = target: T1, Human IL-17A (Homo sapiens, UniProt Q16552); assay: Inhibition of human IL-17A protein-induced GROα/CXCL1 production in HT-29 cells; type: cell-based; design: purchased R&D 317-ILB; host or cells: added exogenously to HT-29 cells; conditions: 30 ng/mL human IL-17A protein, 48 h, GROα in supernatant by ELISA kit, read-out: Inhibitory IC50 of compounds on HT-29 cell GROα/CXCL1
# T1 sequence (Q16552 20-155 limits assumed): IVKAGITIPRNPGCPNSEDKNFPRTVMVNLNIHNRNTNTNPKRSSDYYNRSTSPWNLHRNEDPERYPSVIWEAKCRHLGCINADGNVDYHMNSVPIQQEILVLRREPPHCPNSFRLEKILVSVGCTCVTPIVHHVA
# Protocol: Experiment Example 3 Inhibition of Human IL-17A Protein-Induced GROα/CXCL1 Production in HT-29 Cells by Compounds
# This assay was conducted to evaluate the ability of the compounds to inhibit human IL-17A protein-induced production of the chemokine growth-regulated oncogene alpha/C-X-C motif chemokine ligand 1 (GROα/CXCL1) in HT-29 cells.
# Human colorectal adenocarcinoma epithelial HT-29 cells (Chengdu Zhongyuan Gongchuang Technology Co., Ltd.) were seeded into a 96-well plate at a density of 5×10^4 cells per well and were cultured overnight in an incubator at 37° C.
# 30 ng/mL of human IL-17A protein (R&D, #317-ILB) was mixed with gradient concentrations of the IL-17A small-molecule inhibitor, or with […] of a positive control IL-17A antibody (R&D, #AF-317-NA). These mixtures were incubated at 37° C. for 1 h and were then added to the plate. The mixtures were co-incubated with the HT-29 cells at 37° C. for 48 h. Thereafter, the level of GROα in the cell culture supernatant was determined using a GROα ELISA kit (Cisbio, #62HCXC1PEG).
# The inhibitory activity of each compound was expressed as the half-maximal inhibitory concentration (IC50) for inhibition of GROα/CXCL1 production in HT-29 cells.
# [2] = target: T1, Human IL-17A; assay: IL-17A enzyme-linked immunosorbent assay (competitive ELISA, IL-17A/IL-17Ra receptor-ligand binding); design: purchased Sino Biological Inc. 12047-H07B; conditions: human IL-17A coated plate, human IL-17Ra, read-out: IC50, inhibitory activity of compounds on human IL-17A
# Protocol: Experimental Example 1 IL-17A Enzyme-Linked Immunosorbent Assay (ELISA)
# The inhibitory effects of human IL-17A inhibitors on receptor-ligand binding were quantitatively determined by a competitive enzyme-linked immunosorbent assay (ELISA). The ELISA was performed through the following steps.
# Human IL-17A (Sino Biological Inc., Cat #12047-H07B) was diluted with coating buffer (50 mM phosphate-buffered saline (PBS), pH 7.4) to give an IL-17A concentration of 0.2 μg/ml. 100 μL of the resulting solution was added to each well of a 96-well plate, and the plate was incubated at 37° C. for 30 min. In a blank group, 100 100 μL of the coating buffer was added instead of the IL-17A solution.
# The plate was washed four times with 10 mM phosphate-buffered saline containing 0.05% Tween-20 (PBST, pH 7.4). 200 μL of PBST was used per well for each wash. After the final wash, the plate was tapped dry on absorbent paper.
# Fresh 5% (w/v) skim milk solution was prepared before the experiment. For example, 5 g of skim milk powder (Bio-Rad, 170-6404) was completely dissolved in 100 mL of 10 mM PBST. 200 μL of the 5% (w/v) skim milk solution was added to each well, and the plate was incubated on a shaker at 25° C. for 30 min.
# (S4) Preparation of 100× to-be-Tested Compound Solutions
# During step (S3), the to-be-tested compound solutions were prepared, respectively. Each powdered compound was dissolved in dimethyl sulfoxide (DMSO) to reach a storage concentration of 10 mM. The to-be-tested compound solutions were then serially diluted four-fold with DMSO to obtain nine storage concentrations ranging from […].
# (S6) Pre-incubation of IL-17A with to-be-tested compound solutions
# 89 μL of PBST and 1 μL of each of the to-be-tested compound solutions were added to each well and mixed. The plate was pre-incubated at 25° C. for 10 min. In the blank group and the control group, 1 μL of DMSO was added instead of the to-be-tested compound solutions.
# (S7) Incubation with Human Interleukin-17 Receptor a (IL-17Ra)
# 10 μL of 16 nM human IL-17Ra (Sino Biological Inc., Cat #10895-H03H) was added, followed by incubation on a shaker at 25° C. for 30 min. The receptor solution was prepared in 10 mM PBST.
# (S9) Incubation with Horseradish Peroxidase-Conjugated Antibody
# 100 μL of mouse anti-Fc tag horseradish peroxidase (HRP)-conjugated antibody (Sino Biological Inc., Cat #10702-MM01T-H) was added to each well. The plate was incubated on a shaker at 25° C. for 30 min. The antibody was diluted with 5% (w/v) skim milk solution at 1:5,000 (v/v).
# 100 μL of 3,3′,5,5′-tetramethylbenzidine (TMB) substrate solution (BD, Cat #555214) was added to each well. Substrate A and substrate B were freshly mixed at a volume ratio of 1:1 before use. The plate was incubated in the dark at 25° C. for 5-15 min.
# (S12) Termination and Detection
# The color reaction was terminated by addition of 2.5 M hydrochloric acid (HCl). Absorbance was measured at 450 nm using a BMG PHERStar microplate reader.
# (S13) Calculation of Half-Maximal Inhibitory Concentration (IC50)
# The relative percent residual activity at each compound concentration was calculated according to Equation 1. The IC50 value of each test compound was then calculated in GraphPad 6 using the equation for log(inhibitor) versus normalized response with variable slope, as shown in Equation 2.
# relative percent residual activity (%)=[(absorbance of sample−absorbance of blank group)/(absorbance of control group−absorbance of blank group)]%. Equation 1: […]
# The compounds prepared in the above examples were tested for IL-17A inhibitory activity according to the above method.
Compound,IC50 [1],IC50 [2]
Cc1[nH]nc2c1-c1cnc(NC(=O)[C@@H](NC(=O)c3ccnn3C(C)C)C(C3CC3)C3CC3)cc1CN(C1CCC1)C(=O)C2 [compound 197],≤ 100 nM,≤ 50 nM
Cc1[nH]nc2c1-c1cnc(NC(=O)[C@@H](NC(=O)c3ccnn3C3CC3)C(C3CC3)C3CC3)cc1CN(C1CC1)CC2 [compound 219],≤ 100 nM,≤ 50 nM
CCn1nccc1C(=O)N[C@H](C(=O)Nc1cc2c(cc1F)-c1c(n[nH]c1C)CCOC2)C1CCCCC1 [compound 49],100 to 500 nM,≤ 50 nM
CC(C)=C(F)C(=O)N[C@H](C(=O)Nc1cc2c(cc1F)-c1c(n[nH]c1C)CCOC2)C(C1CC1)C1CC1 [compound 232],≤ 100 nM,≤ 50 nM
CC(C)=C(F)C(=O)N[C@H](C(=O)Nc1cc2c(cn1)-c1c(n[nH]c1C)CCOC2)C(C1CC1)C1CC1 [compound 244],≤ 100 nM,≤ 50 nM
Cc1[nH]nc2c1-c1cc(F)c(NC(=O)[C@@H](NC(=O)c3ccnn3C(C)C)C(C3CC3)C3CC3)cc1CCCC2 [compound 130],100 to 500 nM,≤ 50 nM
CCN1CCc2n[nH]c(C)c2-c2cc(F)c(NC(=O)[C@@H](NC(=O)c3ccnn3CC)C(C3CC3)C3CC3)cc2C1 [compound 157],100 to 500 nM,≤ 50 nM
Cc1[nH]nc2c1-c1cc(F)c(NC(=O)[C@@H](NC(=O)c3conc3C(C)C)C(C3CC3)C3CC3)cc1CN(CC(F)F)C(=O)C2 [compound 171],≤ 100 nM,≤ 50 nM
"CCC1Cc2n[nH]c(C)c2-c2cc(F)c(NC(=O)[C@@H](NC(=O)c3ccnn3C(C)C)C(C3CC3)C3CC3)cc2CO1 (single isomer, unassigned) [compound 120b]",100 to 500 nM,≤ 50 nM
"CCC1Cc2n[nH]c(C)c2-c2cc(F)c(NC(=O)[C@@H](NC(=O)c3ccnn3C(C)C)C(C3CC3)C3CC3)cc2CO1 (single isomer, unassigned) [compound 120a]",100 to 500 nM,50 to 150 nM
C=C(F)C(=O)N[C@H](C(=O)Nc1cc2c(cn1)-c1c(n[nH]c1C)CCOC2)C(C1CC1)C1CC1 [compound 245],≤ 100 nM,≤ 50 nM
"CCC(C)n1nccc1C(=O)N[C@H](C(=O)Nc1cc2c(cc1F)-c1c(n[nH]c1C)CCOC2)C(C1CC1)C1CC1 (single isomer, unassigned) [compound 123b]",100 to 500 nM,≤ 50 nM
"CSCC(C)n1nccc1C(=O)N[C@H](C(=O)Nc1cc2c(cc1F)-c1c(n[nH]c1C)CCOC2)C(C1CC1)C1CC1 (single isomer, unassigned) [compound 40a]",100 to 500 nM,50 to 150 nM
Cc1[nH]nc2c1-c1cc(F)c(NC(=O)[C@@H](NC(=O)c3ccnn3C(C)C)C(C3CC3)C3CC3)cc1CN(CC(F)F)C(C)C2 (mixture of isomers) [compound 178],≤ 100 nM,≤ 50 nM
Cc1[nH]nc2c1-c1cc(F)c(NC(=O)[C@@H](NC(=O)c3ccnn3CC3(F)CC3)C(C3CC3)C3CC3)cc1COCC2 [compound 79],100 to 500 nM,50 to 150 nM
"Cc1[nH]nc2c1-c1cnc(NC(=O)[C@@H](NC(=O)c3ccnn3C(C)C(F)F)C(C3CC3)C3CC3)cc1COCC2 (single isomer, unassigned) [compound 190b]",100 to 500 nM,50 to 150 nM

Compound,IC50 [1],IC50 [2]
"Cc1[nH]nc2c1-c1cc(F)c(NC(=O)[C@@H](NC(=O)c3ccnn3C(C)C)C(C3CC3)C3CC3)cc1C(=O)NC(C)C2 (single isomer, unassigned) [compound 187a]",≤ 100 nM,–
"Cc1[nH]nc2c1-c1cc(F)c(NC(=O)[C@@H](NC(=O)c3ccnn3C(C)C)C(C3CC3)C3CC3)cc1C(=O)NC(C)C2 (single isomer, unassigned) [compound 187b]",≤ 100 nM,–
"CSCC(C)n1nccc1C(=O)N[C@H](C(=O)Nc1cc2c(cc1F)-c1c(n[nH]c1C)CCOC2)C(C1CC1)C1CC1 (single isomer, unassigned) [compound 40b]",100 to 500 nM,≤ 50 nM
"Cc1[nH]nc2c1-c1cnc(NC(=O)[C@@H](NC(=O)c3ccnn3C(C)C(F)F)C(C3CC3)C3CC3)cc1COCC2 (single isomer, unassigned) [compound 190a]",100 to 500 nM,≤ 50 nM
CCn1nccc1C(=O)N[C@H](C(=O)Nc1cc2c(cn1)-c1c(n[nH]c1C)CCOC2)C(C1CC1)C1CC1 [compound 53],100 to 500 nM,≤ 50 nM
Cc1[nH]nc2c1-c1cc(F)c(NC(=O)[C@@H](NC(=O)c3ccnn3C(C)C)C(C3CC3)C3CC3)cc1CN(C1CCC(F)(F)CC1)CC2 [compound 175],≤ 100 nM,≤ 50 nM
Cc1c2c(nn1COCC[Si](C)(C)C)CC(=O)N(Cc1ccccc1)Cc1cc(N)c(F)cc1-2 [compound 183],100 to 500 nM,–
Cc1[nH]nc2c1-c1cc(F)c(NC(=O)[C@@H](NC(=O)c3ccnn3[C@@H](C)CO)[C@H]3CC[C@H](C)CC3)cc1COCC2 [compound 47],–,≤ 50 nM
Cc1[nH]nc2c1-c1cnc(NC(=O)[C@@H](NC(=O)c3ccnn3C(C)C)C(C3CC3)C3CC3)c(F)c1COCC2 [compound 128],–,≤ 50 nM
"CCn1nccc1C(=O)NC(C(=O)Nc1cc2c(cc1F)-c1c(n[nH]c1C)CCOC2)C1CCC(F)(F)CC1 (single isomer, unassigned) [compound 37a]",–,≤ 50 nM
Cc1[nH]nc2c1-c1cc(F)c(NC(=O)[C@@H](NC(=O)/C(F)=C\C3CC3)C(C3CC3)C3CC3)cc1CN(C(C)C(F)(F)F)C(=O)C2 (mixture of isomers) [compound 251],–,≤ 50 nM
Cc1[nH]nc2c1-c1cc(F)c(NC(=O)[C@@H](NC(=O)c3ccnn3C(C)C)C(C3CC3)C3CC3)cc1CN(C1(C(F)(F)F)CC1)CC2 [compound 213],–,≤ 50 nM
Cc1[nH]nc2c1-c1cnc(NC(=O)[C@@H](NC(=O)c3ccnn3C(C)C)C(C3CC3)C3CC3)cc1CN(C(C)C(F)(F)F)C(=O)C2 (mixture of isomers) [compound 204],–,≤ 50 nM
C=C(F)C(=O)N[C@H](C(=O)Nc1cc2c(cn1)-c1c(n[nH]c1C)CCN(C1CC1)C2)C(C1CC1)C1CC1 [compound 224],–,≤ 50 nM
Cc1[nH]nc2c1-c1cnc(NC(=O)[C@@H](NC(=O)/C(F)=C\C3CC3)C(C3CC3)C3CC3)cc1CN(C1CC1)CC2 [compound 221],–,≤ 50 nM
